The text below walks through data of ChEMBL document CHEMBL5113511, “Discovery of Small-Molecule Degraders of the CDK9-Cyclin T1 Complex for Targeting Transcriptional Addiction in Prostate Cancer” (J Med Chem, 2022).

The source made the active and inactive calls. The calls are words filed in the database; no cut-off is given here.

The target of experiment [1] is T1, Cyclin-T1 (Homo sapiens, UniProt O60563). Nature of the experiment: Induction of HyT-mediated degradation of Cyclin T1 in human 22Rv1 cells at 0.3 to 3 uM incubated for 24 hrs by immunoblot analysis. The note with it: dose 0.3-3 µM. Type of experiment: cell-based. In general terms: A western blot detects proteins with antibodies after separation by electrophoresis.

The target of experiment [2] is T2, Cyclin-dependent kinase 9 (Homo sapiens, UniProt P50750). The experiment can be described thus: Induction of HyT-mediated degradation of CDK9 in human 22Rv1 cells at 0.3 to 3 uM incubated for 24 hrs by immunoblot analysis. The note with it: dose 0.3-3 µM. The class given is cell-based.
For experiment [3], the target named is T2, Cyclin-dependent kinase 9. The experiment can be described thus: Induction of HyT-mediated degradation of CDK9 in human 22Rv1 cells assessed as reduction in CDK9 protein level at 3 uM incubated for 24 hrs by immunoblot analysis relative to control. Type of experiment: cell-based. Set-up: scale not given: the % may be the effect or the level left.
The subject of experiment [4] is CWR22R. The experiment can be described thus: Induction of cell cycle arrest in human 22Rv1 cells assessed as accumulation of cells at sub-G1 phase at 0.3 to 1 uM incubated for 24 hrs by propidium iodide staining based flow cytometry. Type of experiment: functional. The note with it: dose 0.3-1 µM. In general terms: A flow cytometer gives signals particle by particle.

In experiment [5] the test system is CWR22R. Nature of the experiment: Downregulation of CCNT1 mRNA expression in human 22Rv1 cells at 2 uM incubated for 24 hrs by transcriptome RNA-seq analysis. Type of experiment: functional, cell-based.
Experiment [6] deals with T2, Cyclin-dependent kinase 9. The experiment can be described thus: Induction of CDK9 degradation in human 22Rv1 cells assessed as downregulation of MCL1 protein expression at 0.3 to 3 uM incubated for 24 hrs by immunoblot analysis. The note with it: dose 0.3-3 µM. Type of experiment: cell-based.
Experiment [7] concerns the target T2, Cyclin-dependent kinase 9. The experiment can be described thus: Induction of degradation of CDK9 in human 22Rv1 cells at 3 uM measured for 36 hrs by DIA-based proteomics analysis. The class given is cell-based.
The target of experiment [8] is T2, Cyclin-dependent kinase 9. Nature of the experiment: Induction of CDK9 degradation in human 22Rv1 cells assessed as inhibition of Ser2 phosphorylation of RNA Pol II CTD at 0.3 to 3 uM incubated for 24 hrs by immunoblot analysis. The class given is cell-based. The note with it: dose 0.3-3 µM.
Experiment [9] has as its target T2, Cyclin-dependent kinase 9. Nature of the experiment: Induction of CDK9 degradation in human 22Rv1 cells assessed as decrease in cyclin A2 protein expression at 3 uM measured for 36 hrs by DIA-based proteomics analysis. Type of experiment: cell-based.
Experiment [10] concerns CWR22R. Nature of the experiment: Antiproliferative activity against human 22Rv1 cells assessed as reduction in cell viability measured after 5 days by CellTiter-Glo assay. The note with it: 22Rv1, 120 h. The class given is functional, cell-based. (ATP-based viability assays read luminescence as a measure of living cells.)
For experiment [11], the system named is CWR22R. Nature of the experiment: Induction of apoptosis in human 22Rv1 cells at 0.3 to 1 uM incubated for 24 hrs by AnnexinV-FITC/PI staining based flow cytometry. The class given is functional, cell-based. The note with it: dose 0.3-1 µM.
In experiment [12] the target is T1, Cyclin-T1. The experiment can be described thus: Induction of Cyclin T1 degradation in human 22Rv1 cells assessed as cyclin T1 level at 3 uM incubated for 24 hrs by DIA-based proteomics analysis. The class given is cell-based.
The subject of experiment [13] is CWR22R. The experiment can be described thus: Inhibition of colony formation in human 22Rv1 cells at 100 to 200 nM treated for 14 days with replacement with fresh medium containing compound for every 48 hrs by crystal violet staining based analysis. Particulars: dose 100-200 nM, time 14.0 day. The class given is functional, cell-based.
The target in experiment [14] is Cyclin-dependent kinase 6 (Homo sapiens) (UniProt Q00534). The experiment can be described thus: Induction of CDK6 degradation in human 22Rv1 cells assessed as downregulation of CDK6 level at 3 uM measured after 12 hrs by DIA-based proteomics analysis. The class given is cell-based.
In experiment [15] the target is T2, Cyclin-dependent kinase 9. Nature of the experiment: Induction of degradation of CDK9 in human 22Rv1 cells at 2 uM measured after 0 to 7 hrs by immunoblot analysis. Type of experiment: cell-based. The note with it: time 0-7 hrs.
Experiment [16] concerns the target T2, Cyclin-dependent kinase 9. Nature of the experiment: Induction of degradation of CDK9 in human 22Rv1 cells assessed as reduction in CDK9 level at 2 uM measured after 9 hrs by immunoblot analysis. Type of experiment: cell-based.
Experiment [17] addresses Cyclin-dependent kinase 7 (Homo sapiens) (UniProt P50613). The experiment can be described thus: Induction of CDK7 degradation in human 22Rv1 cells assessed as downregulation of CDK7 level at 3 uM measured after 12 hrs by DIA-based proteomics analysis. The class given is cell-based.
The target in experiment [18] is T2, Cyclin-dependent kinase 9. Nature of the experiment: Induction of CDK9 degradation in human 22Rv1 cells at 3 uM incubated for 24 hrs by DIA-based proteomics analysis. Type of experiment: cell-based.
For experiment [19], the target named is Cyclin-dependent kinase 1 (Homo sapiens) (UniProt P06493). The experiment can be described thus: Induction of CDK1 degradation in human 22Rv1 cells assessed as downregulation of CDK1 level at 3 uM measured after 12 hrs by DIA-based proteomics analysis. Type of experiment: cell-based.
Experiment [20] concerns the target T2, Cyclin-dependent kinase 9. The experiment can be described thus: Induction of CDK9 degradation in human 22Rv1 cells assessed as decrease in cyclin C protein expression at 3 uM measured for 36 hrs by DIA-based proteomics analysis. Type of experiment: cell-based.
For experiment [21], the target named is T2, Cyclin-dependent kinase 9. Nature of the experiment: Induction of CDK9 degradation in human 22Rv1 cells assessed as decrease in cyclin D1 protein expression at 3 uM measured for 36 hrs by DIA-based proteomics analysis. Type of experiment: cell-based.
Experiment [22] concerns the target Cyclin-dependent kinase 4 (Homo sapiens) (UniProt P11802). The experiment can be described thus: Induction of CDK4 degradation in human 22Rv1 cells assessed as downregulation of CDK4 level at 3 uM measured after 12 hrs by DIA-based proteomics analysis. The class given is cell-based.
Experiment [23] deals with Cyclin-dependent kinase 11B (Homo sapiens) (UniProt P21127). Nature of the experiment: Induction of CDK11B degradation in human 22Rv1 cells at 3 uM measured after 36 hrs by DIA-based proteomics analysis. The class given is cell-based.
Experiment [24] has as its system CWR22R. Nature of the experiment: Induction of cell cycle arrest in human 22Rv1 cells assessed as accumulation of cells at G1 phase at 0.3 to 1 uM incubated for 24 hrs by propidium iodide staining based flow cytometry. The class given is functional. Particulars: dose 0.3-1 µM.
The target in experiment [25] is T1, Cyclin-T1. The experiment can be described thus: Induction of degradation of Cyclin T1 in human 22Rv1 cells at 3 uM measured for 36 hrs by DIA-based proteomics analysis. The class given is cell-based.
Experiment [26] has as its target T2, Cyclin-dependent kinase 9. The experiment can be described thus: Induction of CDK9 degradation in human 22Rv1 cells assessed as decrease in cyclin B1 protein expression at 3 uM measured for 36 hrs by DIA-based proteomics analysis. Type of experiment: cell-based.
In experiment [27] the target is T2, Cyclin-dependent kinase 9. Nature of the experiment: Induction of CDK9 degradation in human 22Rv1 cells assessed as downregulation of AR protein expression at 3 uM measured for 36 hrs by DIA-based proteomics analysis. Type of experiment: cell-based.
For experiment [28], the target named is T1, Cyclin-T1. The experiment can be described thus: Induction of HyT-mediated degradation of Cyclin T1 in human 22Rv1 cells assessed as reduction in Cyclin T1 level at 3 uM incubated for 24 hrs by immunoblot analysis. The class given is cell-based.
In experiment [29] the test system is CWR22R. The experiment can be described thus: Downregulation of cyclin D1 protein expression in human 22Rv1 cells at 2 uM incubated for 24 hrs by DIA-based proteomics analysis. Type of experiment: functional, cell-based.
Experiment [30] concerns CWR22R. Nature of the experiment: Upregulation of […] protein expression in human 22Rv1 cells at 2 uM incubated for 24 hrs by DIA-based proteomics analysis. The class given is functional, cell-based.
Experiment [31] has as its target T1, Cyclin-T1. The experiment can be described thus: Induction of HyT-mediated degradation of Cyclin T1 in human 22Rv1 cells at 3 uM incubated for 24 hrs by immunoblot analysis relative to control. Type of experiment: cell-based.
For experiment [32], the target named is T2, Cyclin-dependent kinase 9. Nature of the experiment: Induction of HyT-mediated degradation of CDK9 in human 22Rv1 cells at 3 uM incubated for 24 hrs by immunoblot analysis relative to control. Type of experiment: cell-based.

T2 sequence (P50750 whole entry): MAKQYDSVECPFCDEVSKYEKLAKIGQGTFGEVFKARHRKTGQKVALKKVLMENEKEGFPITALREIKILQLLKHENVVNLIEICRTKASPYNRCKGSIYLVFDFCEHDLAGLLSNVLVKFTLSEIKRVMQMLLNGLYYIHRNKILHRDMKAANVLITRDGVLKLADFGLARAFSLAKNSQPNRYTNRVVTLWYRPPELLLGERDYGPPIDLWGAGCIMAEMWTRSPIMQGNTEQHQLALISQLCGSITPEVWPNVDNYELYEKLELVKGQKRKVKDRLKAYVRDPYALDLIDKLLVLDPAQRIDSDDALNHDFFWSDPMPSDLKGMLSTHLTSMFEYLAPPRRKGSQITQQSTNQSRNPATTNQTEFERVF
T1 sequence (O60563 whole entry): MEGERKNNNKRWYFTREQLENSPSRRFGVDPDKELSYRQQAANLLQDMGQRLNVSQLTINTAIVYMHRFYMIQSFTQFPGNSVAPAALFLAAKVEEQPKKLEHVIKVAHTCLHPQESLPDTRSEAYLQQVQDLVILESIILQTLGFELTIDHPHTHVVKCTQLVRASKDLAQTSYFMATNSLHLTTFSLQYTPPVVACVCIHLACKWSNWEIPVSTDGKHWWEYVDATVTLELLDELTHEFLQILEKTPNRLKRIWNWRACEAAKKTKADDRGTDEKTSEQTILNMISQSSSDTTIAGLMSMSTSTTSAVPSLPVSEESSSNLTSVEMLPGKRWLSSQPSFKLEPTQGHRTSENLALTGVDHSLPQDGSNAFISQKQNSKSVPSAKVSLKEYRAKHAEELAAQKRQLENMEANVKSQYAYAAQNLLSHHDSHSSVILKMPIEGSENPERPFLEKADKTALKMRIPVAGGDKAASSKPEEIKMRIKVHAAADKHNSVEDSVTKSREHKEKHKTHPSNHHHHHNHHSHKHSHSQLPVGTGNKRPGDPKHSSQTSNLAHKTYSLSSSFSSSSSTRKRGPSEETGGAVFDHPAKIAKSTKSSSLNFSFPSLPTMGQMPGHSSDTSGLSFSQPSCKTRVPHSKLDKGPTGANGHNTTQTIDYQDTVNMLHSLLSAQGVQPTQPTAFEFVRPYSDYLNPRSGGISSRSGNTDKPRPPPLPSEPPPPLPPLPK
Cyclin-dependent kinase 11B (Homo sapiens), sequence (P21127 whole entry): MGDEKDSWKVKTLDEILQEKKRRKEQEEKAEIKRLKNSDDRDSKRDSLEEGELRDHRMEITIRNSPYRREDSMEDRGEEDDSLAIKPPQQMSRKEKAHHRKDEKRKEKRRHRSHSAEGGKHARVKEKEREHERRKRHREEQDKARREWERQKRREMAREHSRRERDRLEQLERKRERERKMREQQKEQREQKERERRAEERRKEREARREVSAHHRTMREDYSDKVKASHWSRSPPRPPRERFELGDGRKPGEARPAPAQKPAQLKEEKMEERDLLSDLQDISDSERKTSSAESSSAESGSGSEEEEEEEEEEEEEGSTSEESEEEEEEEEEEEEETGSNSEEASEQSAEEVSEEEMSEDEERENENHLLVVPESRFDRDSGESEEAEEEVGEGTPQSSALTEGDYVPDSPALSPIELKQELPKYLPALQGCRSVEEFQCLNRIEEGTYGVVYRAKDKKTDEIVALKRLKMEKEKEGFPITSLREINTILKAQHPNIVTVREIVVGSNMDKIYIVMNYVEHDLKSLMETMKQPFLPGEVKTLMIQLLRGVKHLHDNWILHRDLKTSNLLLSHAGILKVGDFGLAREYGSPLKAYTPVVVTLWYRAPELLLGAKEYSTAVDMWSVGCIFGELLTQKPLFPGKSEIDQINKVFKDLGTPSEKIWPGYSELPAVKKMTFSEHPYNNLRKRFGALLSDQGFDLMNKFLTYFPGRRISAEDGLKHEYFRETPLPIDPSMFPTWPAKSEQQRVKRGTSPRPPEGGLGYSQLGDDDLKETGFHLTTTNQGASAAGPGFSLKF
Cyclin-dependent kinase 7 (Homo sapiens), sequence (P50613 whole entry): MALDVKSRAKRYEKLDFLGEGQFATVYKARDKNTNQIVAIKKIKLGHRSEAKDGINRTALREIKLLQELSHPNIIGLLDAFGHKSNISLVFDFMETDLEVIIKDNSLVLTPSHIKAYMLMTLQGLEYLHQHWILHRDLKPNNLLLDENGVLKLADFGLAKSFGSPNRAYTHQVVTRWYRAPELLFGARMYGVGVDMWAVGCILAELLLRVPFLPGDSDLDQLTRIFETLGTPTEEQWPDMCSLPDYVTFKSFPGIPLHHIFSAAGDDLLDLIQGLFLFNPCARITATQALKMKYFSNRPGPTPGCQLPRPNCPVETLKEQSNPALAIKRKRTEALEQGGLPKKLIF
Cyclin-dependent kinase 4 (Homo sapiens), sequence (P11802 whole entry): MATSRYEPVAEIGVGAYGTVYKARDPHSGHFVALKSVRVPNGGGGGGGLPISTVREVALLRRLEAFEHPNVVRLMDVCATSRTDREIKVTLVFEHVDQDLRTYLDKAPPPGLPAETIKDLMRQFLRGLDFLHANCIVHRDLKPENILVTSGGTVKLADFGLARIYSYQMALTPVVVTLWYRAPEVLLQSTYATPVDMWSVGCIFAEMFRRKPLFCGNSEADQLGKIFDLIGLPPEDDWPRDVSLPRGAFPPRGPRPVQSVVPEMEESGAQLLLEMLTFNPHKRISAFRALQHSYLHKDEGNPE
Cyclin-dependent kinase 6 (Homo sapiens), sequence (Q00534 whole entry): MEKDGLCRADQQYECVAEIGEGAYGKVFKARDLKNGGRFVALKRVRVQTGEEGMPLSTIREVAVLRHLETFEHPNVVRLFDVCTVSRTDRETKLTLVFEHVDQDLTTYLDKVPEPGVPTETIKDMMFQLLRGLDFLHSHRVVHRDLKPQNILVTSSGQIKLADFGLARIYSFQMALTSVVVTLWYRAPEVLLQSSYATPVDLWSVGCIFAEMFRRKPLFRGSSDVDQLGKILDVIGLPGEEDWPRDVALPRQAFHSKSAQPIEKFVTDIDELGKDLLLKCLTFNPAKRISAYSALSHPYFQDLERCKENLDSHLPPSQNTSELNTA
Cyclin-dependent kinase 1 (Homo sapiens), sequence (P06493 whole entry, looked up): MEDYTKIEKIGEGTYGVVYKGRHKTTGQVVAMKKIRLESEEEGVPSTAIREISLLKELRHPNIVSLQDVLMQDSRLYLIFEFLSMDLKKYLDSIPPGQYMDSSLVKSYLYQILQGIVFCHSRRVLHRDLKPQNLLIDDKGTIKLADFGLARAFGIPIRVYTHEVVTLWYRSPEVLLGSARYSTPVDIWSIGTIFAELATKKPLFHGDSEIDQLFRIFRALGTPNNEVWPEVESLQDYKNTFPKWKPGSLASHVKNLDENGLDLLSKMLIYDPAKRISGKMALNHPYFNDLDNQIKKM

Regarding `CC(C)(C)c1cnc(CSc2cnc(NC(=O)C3CCN(S(=O)(=O)CCNC(=O)CC45CC6CC(CC(C6)C4)C5)CC3)s2)o1`, the result in experiment [1] and in experiment [2] was Active.

Consider `CC(C)[C@@H]1CC[C@@H](C)C[C@H]1OCC(=O)N1CCN(CCS(=O)(=O)N2CCC(C(=O)Nc3ncc(SCc4ncc(C(C)(C)C)o4)s3)CC2)CC1`, for which the Activity in experiment [3] is above 50%.

A word on the IC50: it is the concentration that inhibits the measured activity by half. Regarding `CC(C)(C)c1cnc(CSc2cnc(NC(=O)C3CCN(CC(=O)NCCOCCOCCOCCNc4cccc5c4C(=O)N(C4CCC(=O)NC4=O)C5=O)CC3)s2)o1` (stereo not given), the result in experiment [4], in [6], in [7], in experiment [8], in [9] and in [11] was Active. Also, the outcome in experiment [14], in [15], in [16], in [17], in [18] and in [19] was Active. Besides, the outcome in [20], in experiment [21], in experiment [22], in experiment [23], in experiment [24] and in experiment [25] was Active. In addition, the outcome in experiment [26] and in [27] was Active. The inhibition result in [5] and in experiment [13] was “Active” throughout. Besides, the IC50 in experiment [10] turned out to be 49 nM. Moreover, the Activity in experiment [12] was found to be 40.2%.

On to `CC(C)[C@@H]1CC[C@@H](C)C[C@H]1OCC(=O)NCCOCCS(=O)(=O)N1CCC(C(=O)Nc2ncc(SCc3ncc(C(C)(C)C)o3)s2)CC1`, for which the result in experiment [28] and in experiment [2] was Active.

Take `CC(C)[C@@H]1CC[C@@H](C)C[C@H]1OCC(=O)NCCCCN1CCC(C(=O)Nc2ncc(SCc3ncc(C(C)(C)C)o3)s2)CC1`: the outcome in experiment [1] and in experiment [2] was Active.

Consider `CC(C)[C@@H]1CC[C@@H](C)C[C@H]1OCC(=O)NCCN1CCC(C(=O)Nc2ncc(SCc3ncc(C(C)(C)C)o3)s2)CC1`, for which the outcome in experiment [1] and in experiment [2] was Active.

`CC(C)(C)c1cnc(CSc2cnc(NC(=O)C3CCN(S(=O)(=O)CCNC(=O)NC45CC6CC(CC(C6)C4)C5)CC3)s2)o1`: the outcome in experiment [1] and in experiment [2] was Active.

For `CC(C)(C)c1cnc(CSc2cnc(NC(=O)C3CCNCC3)s2)o1` [BMS-387032], in experiment [29], the inhibition result is “Active”. The result in experiment [4], in [11], in experiment [30] and in experiment [24] was Active. For the same compound, the half-maximal inhibitory concentration (IC50) in experiment [10] was found to be 384 nM.

Consider `CC(C)[C@@H]1CC[C@@H](C)C[C@H]1OCC(=O)NCCCOCCS(=O)(=O)N1CCC(C(=O)Nc2ncc(SCc3ncc(C(C)(C)C)o3)s2)CC1`, for which the Activity in [31] and in experiment [32] was below 40% in each case.

Take `CC(C)(C)OC(=O)NC(=NCCC[C@@H](NC(=O)OC(C)(C)C)C(=O)NCCS(=O)(=O)N1CCC(C(=O)Nc2ncc(SCc3ncc(C(C)(C)C)o3)s2)CC1)NC(=O)OC(C)(C)C`: the outcome in experiment [1] and in [2] was Active.
